According to patent US9827292B2, “Use of KGF in the treatment of menopausal disorders” (Università degli Studi di Roma “La Sapienza”, priority 2012, dated 2017):

Key:
[1] = system: human oestrogen-sensitive keratinocytes (KCs); assay: Proliferation of primary vaginal keratinocytes (Ki67 immunofluorescence; crystal violet); type: cell-based; details: for proliferative effect in the presence of tamoxifen: tamoxifen 100 nM, anti-Ki67 and crystal violet, FIG. 1D
Experimental: The oestrogen receptor α-positive MCF-7 human breast adenocarcinoma cell line, acquired from American Type Culture Collection (no. HTB-22, ATCC-LGC Promochem, Teddington, UK), was cultured in Dulbecco's modified eagle's medium (DMEM; Invitrogen, Karlsruhe, Germany), supplemented with 10% foetal bovine serum (FBS; Invitrogen) and antibiotics. Primary cultures of human oestrogen-sensitive keratinocytes (KCs) were established from 1 cm^2 full-thickness mucosal biopsy of the vaginal vestibule. Following enzymatic dissociation, the keratinocytes were seeded onto culture plates coated with collagen IV (10 mg/ml), as previously reported [Panici et al, 2007], and were maintained in basal medium of the keratinocytes (KBM, Lonza) supplemented with aliquots of KGM (Lonza), with medium change twice a week. For all the experiments with 17β-oestradiol (E2) and tamoxifen, the MCF-7 cells were cultivated in DMEM without phenol red with 10% FBS treated with dextran/carbon (Invitrogen), and the KCs were transferred to a steroid medium of reduced concentration (KGM without EGF and BPE). […]
The cells, grown on glass coverslips, were treated as described above, then fixed in 4% paraformaldehyde in phosphate-buffered saline (PBS) for 30 min at 25° C., followed by treatment with 0.1 M glycine in PBS for 20 min at 25° C. and with 0.1% Triton X-100 in PBS for an additional 5 min at 25° C. to allow permeabilisation. To assess cell proliferation, the cells were incubated with an anti-Ki67 rabbit polyclonal antibody (1:50 in PBS; Zymed Laboratories, San Francisco, Calif.), which identifies cycling cells. The primary antibody was visualised using Texas Red conjugated goat anti-rabbit IgG (1:100 in PBS; Jackson ImmunoResearch Laboratories, West Grove, Pa.). The nuclei were visualised using 4′,6-diamido-2-phenylindole dihydrochloride (DAPI) (1:10000 in PBS; Sigma-Aldrich). Fluorescence signals were analysed by recording stained images using a cooled CCD colour digital camera SPOT-2 (Diagnostic Instruments Incorporated, Sterling Heights, Mich.) and Axiovision software (Carl Zeiss Inc., Oberkochen, Germany).
The percentage of Ki67-positive cells was evaluated by counting, for each treatment, a total of 500 cells, randomly taken from ten microscopic fields in three different experiments, expressed as mean value±95% CI and recorded as graphs. For the experiments concerning localisation of ERα, the cytoskeleton of actin was visualised using TRITC phalloidin (1:100 in PBS) and ERα was visualised using an anti-ERα monoclonal antibody (Santa Cruz) (1:100 in PBS). The stained single and combined images were captured using Zeiss Apotome® and AxioVision software (Carl Zeiss, Jena, Germany) using 40× lenses.
To evaluate the cytotoxicity of cells treated with tamoxifen, the MCF-7 cells were treated as described above, fixed for 10 min in a solution of 10% acetic acid-10% methanol, stained with crystal violet (1% w/v) and photographed using a Power Shot G5 digital camera (Canon, Inc., Tokyo, Japan).

[2] = system: MAPK ERK1 and 2; assay: Western blot of ERK phosphorylation in MCF-7 cells; type: cell-based, human; details: 20 ng/ml, FIG. 2A; for activation (phosphorylation) of ERK1 and 2: 5 and 30 minutes of treatment
Experimental: The oestrogen receptor α-positive MCF-7 human breast adenocarcinoma cell line, acquired from American Type Culture Collection (no. HTB-22, ATCC-LGC Promochem, Teddington, UK), was cultured in Dulbecco's modified eagle's medium (DMEM; Invitrogen, Karlsruhe, Germany), supplemented with 10% foetal bovine serum (FBS; Invitrogen) and antibiotics. Primary cultures of human oestrogen-sensitive keratinocytes (KCs) were established from 1 cm^2 full-thickness mucosal biopsy of the vaginal vestibule. Following enzymatic dissociation, the keratinocytes were seeded onto culture plates coated with collagen IV (10 mg/ml), as previously reported [Panici et al, 2007], and were maintained in basal medium of the keratinocytes (KBM, Lonza) supplemented with aliquots of KGM (Lonza), with medium change twice a week. For all the experiments with 17β-oestradiol (E2) and tamoxifen, the MCF-7 cells were cultivated in DMEM without phenol red with 10% FBS treated with dextran/carbon (Invitrogen), and the KCs were transferred to a steroid medium of reduced concentration (KGM without EGF and BPE). Both MCF-7 and KC were deprived of serum for 4 hours and then treated for 48 h with human recombinant KGF (Upstate Biotechnology, Lake Placid, N.Y.), E2 (Sigma-Aldrich, Milan, Italy), tamoxifen (Sigma-Aldrich, 100 nM) or combinations thereof.
MCF-7 cells untreated or treated with KGF or E2 were lysed in RIPA buffer. Total proteins (50-150 μg) were broken down under reducing conditions by 7%-10% SDS-PAGE and transferred to Immobilon-FL membranes (Millipore, Billerica, Mass.). The membranes were blocked in TBS containing 0.5% Tween 20 (TBS-T) and 5% milk for 1 hour at 25° C. and were then washed twice for 20 minutes in each case in TBS-T. The membranes were incubated overnight at 4° C. with the primary antibody. […] The bound antibody was detected by enhanced chemiluminescence detection reagents (Pierce Biotechnology, Inc, Rockford, Ill., USA), according to manufacturer's instructions. […] Densitometric analysis was performed using Quantity One Program (Bio-Rad Laboratories srl, Segrate, MI, Italy).

[3] = system: ERalpha; assay: Immunofluorescence localisation of ER in MCF-7 cells; type: cell-based, human; details: 5 or 30 min treatment, FIG. 4B
Experimental: The oestrogen receptor α-positive MCF-7 human breast adenocarcinoma cell line, acquired from American Type Culture Collection (no. HTB-22, ATCC-LGC Promochem, Teddington, UK), was cultured in Dulbecco's modified eagle's medium (DMEM; Invitrogen, Karlsruhe, Germany), supplemented with 10% foetal bovine serum (FBS; Invitrogen) and antibiotics. Primary cultures of human oestrogen-sensitive keratinocytes (KCs) were established from 1 cm^2 full-thickness mucosal biopsy of the vaginal vestibule. […]
The cells, grown on glass coverslips, were treated as described above, then fixed in 4% paraformaldehyde in phosphate-buffered saline (PBS) for 30 min at 25° C., followed by treatment with 0.1 M glycine in PBS for 20 min at 25° C. and with 0.1% Triton X-100 in PBS for an additional 5 min at 25° C. to allow permeabilisation. […] Fluorescence signals were analysed by recording stained images using a cooled CCD colour digital camera SPOT-2 (Diagnostic Instruments Incorporated, Sterling Heights, Mich.) and Axiovision software (Carl Zeiss Inc., Oberkochen, Germany).
The percentage of Ki67-positive cells was evaluated by counting, for each treatment, a total of 500 cells, randomly taken from ten microscopic fields in three different experiments, expressed as mean value±95% CI and recorded as graphs. […]

## C[C@]12CC[C@@H]3c4ccc(O)cc4CC[C@H]3[C@@H]1CC[C@@H]2O [E2, 17β-oestradiol]
[1]; low doses (0.5 ng/ml), 24 h, FIG. 1A
  efficacy in terms of cell proliferation of E2 compared to KGF (Ki67-positive cells): 1.2 fold increase
[1]
  proliferative effect in the presence of tamoxifen: inhibited by the presence of tamoxifen
[2]
  activation (phosphorylation) of ERK1 and 2: less consistent rise in the levels of phosphorylation of ERK1 and 2 limited to 5 min of treatment
[2]; 30 min
  activation of ERK 1 and 2 at longer times: considerably reduced
[3]
  cellular localisation of ER by immunofluorescence: movement of ER in the nucleus

B1: keratinocyte growth factor (protein, listed as Homo sapiens)
chain: MHKWILTWILPTLLYRSCFHIICLVGTISLACNDMTPEQMATNVNCSSPERHTRSYDYMEGGDIRVRRLFCRTQWYLRIDKRGKVKGTQEMKNNYNIMEIRTVAVGIVAIKGVESEFYLAMNKEGKLYAKKECNEDCNFKELILENHYNTYASAKWTHNGGEMFVALNQKGIPVRGKKTKKEQKTAHFLPMAIT
notes: human recombinant KGF (Upstate Biotechnology)
[1]; 20 ng/ml for KGF and 2.7 ng/ml for E2, FIG. 1A
  proliferative effect compared to E2 (Ki67-positive cells): absolutely comparable to that of the hormone
[1]; 20 ng/ml, KC from pre-menopausal and post-menopausal women, FIG. 1B
  stimulation of proliferation of the vaginal epithelium in pre-menopausal and post-menopausal populations: able to stimulate proliferation of the vaginal epithelium in a manner comparable to that of oestradiol
[1]
  proliferative effect in the presence of tamoxifen: able to stimulate cell proliferation even in the presence of tamoxifen
[2]
  activation (phosphorylation) of ERK1 and 2: consistent and constant activation of MAPK
[3]
  cellular localisation of ER by immunofluorescence: unexpected localisation of ER on the plasmatic membrane
